# Legend:
# [1] = test system: Musca domestica, susceptible strain WHO(N); experiment: Contact efficacy against houseflies on filter papers in glass dishes; assay type: in vivo; conditions: % a.i. conc. in acetone on filter papers, Table 97
# Protocol: Male Musca domestica, susceptible strain WHO(N), were used.
# A solution of the active ingredient in acetone was prepared. A concentration row was made. After evaporation of the acetone (30′), the dishes were closed by a glass lid and transferred into the test room. One day later twenty flies, anaesthetized with CO2, are counted into each dish. At regular intervals, knock down was recorded (cumulatively). Each test consisted of one replicate. […]
# [2] = test system: Musca domestica, susceptible strain WHO(N); experiment: Efficacy of formulations on surfaces (glazed/unglazed tiles), house flies, continuous exposure; assay type: in vivo; conditions: strain WHO(N) susceptible, acetone solutions on glazed tiles, mean of three replicates
# Protocol: A flat fan nozzle (type SS 8003-E) in a spray cabin was moved automatically over a defined area where the solutions were sprayed very evenly onto the surfaces. The formulation was mixed with water to give a concentration which corresponded to the desired quantity of a.i./m^2. A defined quantity of this solution was sprayed onto the area (nominal 350 liter/ha=0.77 ml per surface).
# All surfaces were provided with talcum-coated glass rings (diameter 9.5 cm, height 5.5 cm) one day later.
# The test insects were anesthetized with CO2, 20 individuals were placed onto the treated surfaces and the glass ring was covered with wire gauze ring.
# Knock down was determined after 15 and 30′, 1, 2, 4 and 6 hours, mortality after 1 day exposure.
# Each test consisted of at least one replicate and any additional replicates are noted.
# Test Insects: House flies (Musca domestica) of both sexes, susceptible strain WHO(N) and resistant strain Reichswald
# Evaluation: Mortality was evaluated cumulatively at different times. […]
# Test Insects: Culex quinquefasciatus (adults) (3 minutes exposure time according to USDA Petri Dish Method), Musca domestica (adults), susceptible and resistant strain, Blattella germanica (males), Cimex lectularius (adults) (all: continuous exposure time)
# Application: The EC formulation (diluted with water 1:9) were applied as 0.85 ml solutions onto glazed tiles (15 cm×15 cm)
# Evaluation: Knock down after 15, and 30 minutes, 1, 2, 3, 4, 6 and 24 hours (mortality)
# Test Insects: Culex quinquefasciatus (adults, susceptible) (3 minutes exposure time according to USDA Petri Dish Method), Musca domestica (adults, susceptible and resistant), Blattella germanica (males, susceptible) (both: continuous exposure time)
# Formulations: Insecticide with or without 10% Compound A (as EC), to be diluted with water (1 part formulation+9 parts water)
# Evaluation: Knock down after 3, 9 (mosquitoes only), 15, and 30 minutes, 1, 2, 3, 4 and 24 hours (mortality) […]
# [3] = assay type: physicochemical; conditions: classified from Log P
# From the text: As used herein, a “partition coefficient” is defined as the ratio of concentrations of an un-ionized compound between solutions of water and octanol. To measure the partition coefficient of ionizable solutes, the pH of the aqueous phase is adjusted such that the predominant form of the compound is un-ionized. The logarithm of the ratio of the concentrations of the un-ionized solute in the solvents is referred to herein as log P or log K ow.
# As noted herein, the octanol-water partition coefficient may be used to identify the cuticular penetration of a particular active ingredient. One factor in the relative speed through which any insecticide acts is the insecticide's ability to cross the insect cuticle. A determining factor for cuticle penetration is Log K ow, also known as Log P. Log K ow (Log P) is the octanol-water partition coefficient for a neutral molecule. Log P is used hereinfurther, but, as noted above, the term is synonymous with Log K ow. As previously noted, the cuticular penetration of any particular active ingredient as against a plant cuticle is not indicative of that same active ingredient's ability to penetrate an insect cuticle.
# The cuticular penetration of a compound is classified as “INTERMEDIATE” when the Log P value is between about 2.0 and about 4.0.
# Aedes aegypti mosquito = experiment: USDA Petri Dish Method, 3 min exposure to treated glazed tile; assay type: in vivo; conditions: Table 37, resmethrin/adjuvant in acetone, glazed tile, 3 min exposure
# Summary of the method: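 USDA Petri Dish screen: groups of twenty female Aedes aegypti (4-6 days old) held 3 minutes on dried acetone-based treatments (with/without adjuvant), then transferred to untreated card. Replicated three or more times; knockdown followed over time, mortality recorded 24 hours post-exposure with sucrose-soaked cotton available.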
# [4] = test system: Culex quinquefasciatus mosquito; experiment: USDA Petri Dish Method, 3 min exposure to treated glazed tile (twenty 4-6 day old females); assay type: in vivo; conditions: in vivo
# Protocol: MATERIALS AND METHODS: Solutions of resmethrin at 1 and 0.5% AI were prepared with and without adjuvant in acetone. […] USDA Petri Dish Method was used as initial screening protocol. Twenty, 4-6 day old female Culex quinquefasciatus mosquitoes were exposed to each treatment for 3 minutes and then moved to a clean untreated white paper index card. Treatments were replicated a minimum of three times. Mosquito knockdown was evaluated at 3 minute intervals for the first 15 minutes and then at 5 minute intervals for the remainder of an hour. A small cotton ball soaked in sucrose solution was added on the screen top of the petri-dish as a drinking source after the 2 hour evaluation. Mortality was evaluated at 24 hours after exposure.
# (§1) Treatments were allowed to dry overnight. USDA Petri Dish Method was used as initial screening protocol. Twenty, 4-6 day old female Culex mosquitoes were exposed to each treatment for 3 minutes and then moved to a clean untreated white paper index card. Treatments were replicated a minimum of three times. Mosquito knockdown was evaluated at various intervals through 3 hours after exposure. A small cotton ball soaked in sucrose solution was added on the screen top of the petri-dish as a drinking source. Mortality was evaluated at 24 hours after exposure.
# as §1, with “female Culex quinquefasciatus mosquitoes were” for “female Culex mosquitoes were”, “intervals through 2 hours after” for “intervals through 3 hours after”, “solution was then added on” for “solution was added on”
# as §1, with “Culex quinquefasciatus” for “Culex”, “hourly intervals.” for “intervals through 3 hours after exposure.”, “source after 2 hours.” for “source.”
structure (smiles),measurement,setting,value
CC1(C)[C@H](C(=O)O[C@H](C#N)c2cccc(Oc3ccccc3)c2)[C@@H]1C=C(Br)Br [0.000064% DTM],% knock down after,[1]; 15′,0%
same,% knock down after,[1]; 30′,0%
same,% knock down after,[1]; 1 h,0%
same,% knock down after,[1]; 1.5 h,0%
same,% knock down after,[1]; 2 h,0%
same,% knock down after,[1]; 3 h,0%
same,% knock down after,[1]; 4 h,0%
same,% knock down after,[1]; 6 h,15%
same,% knock down after,[1]; 1 d,80%
CC1(C)[C@H](C(=O)O[C@H](C#N)c2cccc(Oc3ccccc3)c2)[C@@H]1C=C(Br)Br [0.001% DTM],% Mortality after,[2]; 15′,2%
same,% Mortality after,[2]; 30′,18%
same,% Mortality after,[2]; 1 h,58%
same,% Mortality after,[2]; 2 h,80%
same,% Mortality after,[2]; 3 h,88%
same,% Mortality after,[2]; 24 h,92%
CCOP(=S)(OCC)Oc1cc(C)nc(C(C)C)n1 [diazinon],Likelihood of Direct Insect Cuticular Penetration,[3],Intermediate (classified as “INTERMEDIATE” when the Log P value is between about 2.0 and about 4.0)
CC(C)=CC1C(C(=O)OCc2coc(Cc3ccccc3)c2)C1(C)C (stereo not shown) [Resmethrin (0.5%)],Average % Knockdown & Mortality after 3 min,Aedes aegypti mosquito; 3 min,0%
same,Average % Knockdown & Mortality after 15 min,Aedes aegypti mosquito; 15 min,0%
same,Average % Knockdown & Mortality after 30 min,Aedes aegypti mosquito; 30 min,0%
same,Average % Knockdown & Mortality after 60 min,Aedes aegypti mosquito; 60 min,0%
same,Average % Knockdown & Mortality after 24 hr,Aedes aegypti mosquito; 24 hr,8%
same,Average % Knockdown & Mortality after 3 min,[4],0%
same,Average % Knockdown & Mortality after 15 min,[4],0%
same,Average % Knockdown & Mortality after 30 min,[4],0%
same,Average % Knockdown & Mortality after 60 min,[4],0%
same,Average % Knockdown & Mortality after 2 hr,[4],0%
same,Average % Knockdown & Mortality after 24 hr,[4],0%
CC1(C)[C@H](C(=O)O[C@H](C#N)c2cccc(Oc3ccccc3)c2)[C@@H]1C=C(Br)Br [0.00032% DTM],% knock down after,[1]; 15′,0%
same,% knock down after,[1]; 30′,0%
same,% knock down after,[1]; 1 h,5%
same,% knock down after,[1]; 1.5 h,30%
same,% knock down after,[1]; 2 h,50%
same,% knock down after,[1]; 3 h,65%
same,% knock down after,[1]; 4 h,65%
same,% knock down after,[1]; 6 h,60%
same,% knock down after,[1]; 1 d,95%
CC1(C)C(C=C(Br)Br)C1C(=O)OC(C#N)c1cccc(Oc2ccccc2)c1 (stereo not shown) [0.0016% DTM],% knock down after,[1]; 15′,0%
same,% knock down after,[1]; 30′,5%
same,% knock down after,[1]; 1 h,70%
same,% knock down after,[1]; 1.5 h,90%
same,% knock down after,[1]; 2 h,100%
same,% knock down after,[1]; 3 h,100%
same,% knock down after,[1]; 4 h,100%
same,% knock down after,[1]; 6 h,100%
same,% knock down after,[1]; 1 d,95%
CC1(C)[C@H](C(=O)O[C@H](C#N)c2cccc(Oc3ccccc3)c2)[C@@H]1C=C(Br)Br [0.0000128% DTM],% knock down after,[1]; 15′,0%
same,% knock down after,[1]; 30′,0%
same,% knock down after,[1]; 1 h,0%
same,% knock down after,[1]; 1.5 h,0%
same,% knock down after,[1]; 2 h,0%
same,% knock down after,[1]; 3 h,0%
same,% knock down after,[1]; 4 h,0%
same,% knock down after,[1]; 6 h,15%
same,% knock down after,[1]; 1 d,70%
CCOP(=S)(OCC)Oc1nc(Cl)c(Cl)cc1Cl [chlorpyrifos],Likelihood of Direct Insect Cuticular Penetration,[3],Fast (classified as “FAST” when it has a Log P value of about >4.0)
